What was measured:
[1] = tested on: Echinochloa oryzoides (Ard.) Fritsch.; assay: Preemergence weed control under flooded paddy conditions, ECHORC (Watergrass (Calif.)); format: in vivo; details: preemergence, flooded paddy, rated three to four weeks after treatment; for herbicidal effect rating, ECHORC: meaning of each grade not given here
Cyperus iria = assay: Preemergence weed control under flooded paddy conditions, CYPIR (Rice Flatsedge); format: in vivo; details: preemergence, flooded paddy, rated three to four weeks after treatment; for herbicidal effect rating, CYPIR: meaning of each grade not given here
[2] = tested on: Cyperus serotinus, Rottb.; assay: Preemergence weed control under flooded paddy conditions, CYPSE (Flatsedge); format: in vivo; details: preemergence, rated three to four weeks after treatment; for herbicidal effect rating, CYPSE: meaning of each grade not given here
[3] = tested on: Monochoria vaginalis, Presl.; assay: Preemergence weed control under flooded paddy conditions, MOOVA (Monochoria); format: in vivo; details: preemergence, flooded paddy, rated three to four weeks after treatment; for herbicidal effect rating, MOOVA: meaning of each grade not given here
Sagittaria pygmaea, L. = assay: Preemergence weed control under flooded paddy conditions, SAGPY (Arrowhead (Pygmaea)); format: in vivo; details: preemergence, flooded paddy, rated three to four weeks after treatment; for herbicidal effect rating, SAGPY: meaning of each grade not given here
[4] = tested on: Oryza sativa, (L.) Tebonnet; assay: Rice tolerance to post-transplant applications under flooded paddy conditions (Example 187), ORYSAT (Rice, Tebonnet); details: rated three to four weeks after treatment; for herbicidal effect rating ORYSAT: meaning of each grade not given here

With `C#CCn1c(C(F)(F)F)cc(=O)n(-c2ccc3snc(C)c3c2)c1=O` [Example 217, 3-(3-Methyl-1,2-benzisothiazol-5-yl)-1-(2-propynyl)-6-(trifluoromethyl)-2,4(1H,3H)-pyrimidinedione] the “ECHORC herbicidal effect rating” value ([1]; Rate 0.0313 kg/ha) was 0.0, the “ECHORC herbicidal effect rating” value ([1]; Rate 0.0625 kg/ha) was 0.0 and the “ECHORC herbicidal effect rating” value ([1]; Rate 0.1250 kg/ha) was 0.0. For the same compound, the “ECHORC herbicidal effect rating” value ([1]; Rate 0.2500 kg/ha) was 0.0, the “CYPIR herbicidal effect rating” value (Cyperus iria; Rate 0.0313 kg/ha) was 0.0 and the “CYPIR herbicidal effect rating” value (Cyperus iria; Rate 0.0625 kg/ha) was 0.0. The “CYPIR herbicidal effect rating” value (Cyperus iria; Rate 0.1250 kg/ha) was 0.0, the “CYPIR herbicidal effect rating” value (Cyperus iria; Rate 0.2500 kg/ha) was 0.0 and the “CYPSE herbicidal effect rating” value ([2]; Rate 0.0313 kg/ha) was 0.0. The “CYPSE herbicidal effect rating” value ([2]; Rate 0.0625 kg/ha) was 0.0, the “CYPSE herbicidal effect rating” value ([2]; Rate 0.1250 kg/ha) was 0.0 and the “CYPSE herbicidal effect rating” value ([2]; Rate 0.2500 kg/ha) was 0.0. For the same compound, the “MOOVA herbicidal effect rating” value ([3]; Rate 0.0313 kg/ha) was 2.0, the “MOOVA herbicidal effect rating” value ([3]; Rate 0.0625 kg/ha) was 4.0 and the “MOOVA herbicidal effect rating” value ([3]; Rate 0.1250 kg/ha) was 7.0. The “MOOVA herbicidal effect rating” value ([3]; Rate 0.2500 kg/ha) was 7.0, the “SAGPY herbicidal effect rating” value (Sagittaria pygmaea, L.; Rate 0.0313 kg/ha) was 0.0 and the “SAGPY herbicidal effect rating” value (Sagittaria pygmaea, L.; Rate 0.0625 kg/ha) was 0.0. For the same compound, the “SAGPY herbicidal effect rating” value (Sagittaria pygmaea, L.; Rate 0.1250 kg/ha) was 0.0, the “SAGPY herbicidal effect rating” value (Sagittaria pygmaea, L.; Rate 0.2500 kg/ha) was 0.0 and the “ORYSAT herbicidal effect rating” value ([4]; Rate 0.0313 kg/ha) was 2.0. For the same compound, the “ORYSAT herbicidal effect rating” value ([4]; Rate 0.0625 kg/ha) was 2.0, the “ORYSAT herbicidal effect rating” value ([4]; Rate 0.1250 kg/ha) was 3.0 and the “ORYSAT herbicidal effect rating” value ([4]; Rate 0.2500 kg/ha) was 4.0.

With `COc1cc(C)c(C)c(C)c1-c1nsc2ccc(-n3c(=O)cc(C(F)(F)F)n(C)c3=O)cc12` [Example 34, 3-[3-(6-Methoxy-2,3,4-trimethylphenyl)-1,2-benzisothiazol-5-yl]-1-methyl-6-(trifluoromethyl)-2,4(1H,3H)-pyrimidinedione] the “herbicidal effect rating, ECHORC” value ([1]; 0.0313 kg/ha) was 2.0, the “herbicidal effect rating, ECHORC” value ([1]; 0.0625 kg/ha) was 2.5 and the “herbicidal effect rating, ECHORC” value ([1]; 0.1250 kg/ha) was 3.5. For the same compound, the “herbicidal effect rating, ECHORC” value ([1]; 0.2500 kg/ha) was 4.5, the “herbicidal effect rating, CYPIR” value (Cyperus iria; 0.0313 kg/ha) was 0.0 and the “herbicidal effect rating, CYPIR” value (Cyperus iria; 0.0625 kg/ha) was 0.0. For the same compound, the “herbicidal effect rating, CYPIR” value (Cyperus iria; 0.1250 kg/ha) was 0.0, the “herbicidal effect rating, CYPIR” value (Cyperus iria; 0.2500 kg/ha) was 0.0 and the “herbicidal effect rating, CYPSE” value ([2]; 0.0313 kg/ha) was 0.0. For the same compound, the “herbicidal effect rating, CYPSE” value ([2]; 0.0625 kg/ha) was 0.0, the “herbicidal effect rating, CYPSE” value ([2]; 0.1250 kg/ha) was 0.0 and the “herbicidal effect rating, CYPSE” value ([2]; 0.2500 kg/ha) was 0.0. For the same compound, the “herbicidal effect rating, MOOVA” value ([3]; 0.0313 kg/ha) was 0.0, the “herbicidal effect rating, MOOVA” value ([3]; 0.0625 kg/ha) was 0.0 and the “herbicidal effect rating, MOOVA” value ([3]; 0.1250 kg/ha) was 0.0. For the same compound, the “herbicidal effect rating, MOOVA” value ([3]; 0.2500 kg/ha) was 0.0, the “herbicidal effect rating, SAGPY” value (Sagittaria pygmaea, L.; 0.0313 kg/ha) was 0.0 and the “herbicidal effect rating, SAGPY” value (Sagittaria pygmaea, L.; 0.0625 kg/ha) was 0.0. The “herbicidal effect rating, SAGPY” value (Sagittaria pygmaea, L.; 0.1250 kg/ha) was 0.0, the “herbicidal effect rating, SAGPY” value (Sagittaria pygmaea, L.; 0.2500 kg/ha) was 0.0 and the “herbicidal effect rating, ORYSAT (rice tolerance)” value (from here on “herbicidal effect rating, ORYSAT”) ([4]; 0.0313 kg/ha) was 0.0. The “herbicidal effect rating, ORYSAT” value ([4]; 0.0625 kg/ha) was 0.0, the “herbicidal effect rating, ORYSAT” value ([4]; 0.1250 kg/ha) was 0.0 and the “herbicidal effect rating, ORYSAT” value ([4]; 0.2500 kg/ha) was 0.0.

With `Cn1c(C(F)(F)F)cc(=O)n(-c2ccc3snc(COC(=O)Cc4ccccc4)c3c2)c1=O` [Example 369, 2,4(1H,3H)-Pyrimidinedione, 3-[3-(hydroxymethyl)-1,2-benzisothiazol-5-yl]-1-methyl-6-(trifluoromethyl)-, phenylacetate (ester)] the “herbicidal effect rating, ECHORC” value ([1]; Rate 0.0320 kg/ha) was 3.0, the “herbicidal effect rating, ECHORC” value ([1]; Rate 0.0620 kg/ha) was 3.0 and the “herbicidal effect rating, ECHORC” value ([1]; Rate 0.1250 kg/ha) was 6.0. The “herbicidal effect rating, ECHORC” value ([1]; Rate 0.2500 kg/ha) was 8.0, the “herbicidal effect rating, CYPIR” value (Cyperus iria; Rate 0.0320 kg/ha) was 7.0 and the “herbicidal effect rating, CYPIR” value (Cyperus iria; Rate 0.0620 kg/ha) was 7.0. For the same compound, the “herbicidal effect rating, CYPIR” value (Cyperus iria; Rate 0.1250 kg/ha) was 9.0, the “herbicidal effect rating, CYPIR” value (Cyperus iria; Rate 0.2500 kg/ha) was 9.0 and the “herbicidal effect rating, CYPSE” value ([2]; Rate 0.0320 kg/ha) was 0.0. The “herbicidal effect rating, CYPSE” value ([2]; Rate 0.0620 kg/ha) was 3.0, the “herbicidal effect rating, CYPSE” value ([2]; Rate 0.1250 kg/ha) was 4.0 and the “herbicidal effect rating, CYPSE” value ([2]; Rate 0.2500 kg/ha) was 9.0. For the same compound, the “herbicidal effect rating, MOOVA” value ([3]; Rate 0.0320 kg/ha) was 9.0, the “herbicidal effect rating, MOOVA” value ([3]; Rate 0.0620 kg/ha) was 9.0 and the “herbicidal effect rating, MOOVA” value ([3]; Rate 0.1250 kg/ha) was 9.0. The “herbicidal effect rating, MOOVA” value ([3]; Rate 0.2500 kg/ha) was 9.0, the “herbicidal effect rating, SAGPY” value (Sagittaria pygmaea, L.; Rate 0.0320 kg/ha) was 0.0 and the “herbicidal effect rating, SAGPY” value (Sagittaria pygmaea, L.; Rate 0.0620 kg/ha) was 6.0. For the same compound, the “herbicidal effect rating, SAGPY” value (Sagittaria pygmaea, L.; Rate 0.1250 kg/ha) was 9.0, the “herbicidal effect rating, SAGPY” value (Sagittaria pygmaea, L.; Rate 0.2500 kg/ha) was 9.0 and the “herbicidal effect rating ORYSAT” value ([4]; Rate 0.0320 kg/ha) was 6.0. For the same compound, the “herbicidal effect rating ORYSAT” value ([4]; Rate 0.0620 kg/ha) was 6.0, the “herbicidal effect rating ORYSAT” value ([4]; Rate 0.1250 kg/ha) was 7.0 and the “herbicidal effect rating ORYSAT” value ([4]; Rate 0.2500 kg/ha) was 7.0.
